Each compound was assayed against human PAD4 (hPAD4) (Homo sapiens (Human), UniProt Q9UM07) (assay: RFMS Human PAD4 Functional Assay 1). Settings: RFMS assay 1; 5 nM hPAD4, 250 μM BAEE substrate, 50 μM calcium, 37° C.
Format: biochemical
Outline: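 Recombinant hPAD4 (5 nM) was preincubated with compound (top 50 μM, 0.5% DMSO) for 30 min at 37 °C, then reacted with 250 μM BAEE for 90 min at 37 °C in pH 7.5 HEPES buffer with 50 μM calcium and 5 μM TPEN. Product was derivatized with phenyl glyoxal and quantified by RapidFire MS.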

human PAD4 (hPAD4), sequence (Q9UM07 whole entry): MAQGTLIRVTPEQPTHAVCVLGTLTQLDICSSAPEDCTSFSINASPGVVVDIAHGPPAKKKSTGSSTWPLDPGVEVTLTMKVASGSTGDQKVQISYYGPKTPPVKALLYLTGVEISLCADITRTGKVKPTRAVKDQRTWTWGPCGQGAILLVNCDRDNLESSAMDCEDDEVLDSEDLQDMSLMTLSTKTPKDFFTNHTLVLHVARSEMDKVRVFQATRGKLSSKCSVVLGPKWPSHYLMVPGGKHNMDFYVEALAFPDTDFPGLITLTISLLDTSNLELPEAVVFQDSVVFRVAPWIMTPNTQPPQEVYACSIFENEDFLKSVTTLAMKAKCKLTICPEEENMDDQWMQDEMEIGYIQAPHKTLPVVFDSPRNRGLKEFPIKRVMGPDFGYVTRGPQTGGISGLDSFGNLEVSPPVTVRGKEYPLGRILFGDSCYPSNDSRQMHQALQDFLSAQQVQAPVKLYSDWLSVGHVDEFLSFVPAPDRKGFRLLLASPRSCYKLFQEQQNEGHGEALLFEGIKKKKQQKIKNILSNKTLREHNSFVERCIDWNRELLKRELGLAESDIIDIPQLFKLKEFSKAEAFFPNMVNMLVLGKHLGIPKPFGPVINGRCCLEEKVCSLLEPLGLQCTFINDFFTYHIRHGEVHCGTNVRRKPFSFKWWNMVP

SMILES | IC50
Cc1c(-c2cc3ccc(-c4ccc5c(c4)CNC5=O)cc3n2CC2CC2)nn2cc(C(=O)N3C[C@H](N)C[C@@H](F)C3)ccc12 [Example 95, 5-(2-(6-((3R,5R)-3-Amino-5-fluoropiperidine-1-carbonyl)-3-methylpyrazolo[1,5-a]pyridin-2-yl)-1-(cyclopropylmethyl)-1H-indol-6-yl)isoindolin-1-one] | 133 nM
Cc1c(-c2cc3ccc(-c4ccc5c(c4)C(=O)NC5)cc3n2CC2CC2)nn2cc(C(=O)N3C[C@H](N)C[C@@H](F)C3)ccc12 [Example 96, 6-(2-(6-((3R,5R)-3-Amino-5-fluoropiperidine-1-carbonyl)-3-methylpyrazolo[1,5-a]pyridin-2-yl)-1-(cyclopropylmethyl)-1H-indol-6-yl)isoindolin-1-one] | 588 nM
COc1cc(C(=O)N2C[C@H](N)C[C@@H](F)C2)cn2nc(-c3cc4ccc(C(C)(C)O)cc4n3CC3CC3)c(C)c12 [Example 98, ((3R,5R)-3-Amino-5-fluoropiperidin-1-yl)(2-(1-(cyclopropylmethyl)-6-(2-hydroxypropan-2-yl)-1H-indol-2-yl)-4-methoxy-3-methylpyrazolo[1,5-a]pyridin-6-yl)methanone] | 14 nM
COc1cc(C(=O)N2C[C@H](N)C[C@@H](F)C2)cn2nc(-c3cc4ccc(C(C)(O)C(F)(F)F)cc4n3CC3CC3)c(C)c12 (stereo partly drawn) [Example 99, ((3R,5R)-3-Amino-5-fluoropiperidin-1-yl)(2-(1-(cyclopropylmethyl)-6-(1,1,1-trifluoro-2-hydroxypropan-2-yl)-1H-indol-2-yl)-4-methoxy-3-methylpyrazolo[1,5-a]pyridin-6-yl)methanone] | 307 nM
Cc1c(-c2cc3ccc(C(C)(C)O)cc3n2CC2CC2)nn2cc(C(=O)N3CC4CCC3[C@@H]4N)ccc12 (stereo partly drawn) [Example 100, ((7R)-7-Amino-2-azabicyclo[2.2.1]heptan-2-yl)(2-(1-(cyclopropylmethyl)-6-(2-hydroxypropan-2-yl)-1H-indol-2-yl)-3-methylpyrazolo[1,5-a]pyridin-6-yl)methanone] | 36 nM
Cc1c(-c2cc3ccc(C(C)(O)C(F)(F)F)cc3n2CC2CC2)nn2cc(C(=O)N3CC4CCC3[C@@H]4N)ccc12 (stereo partly drawn) [Example 101, ((7R)-7-Amino-2-azabicyclo[2.2.1]heptan-2-yl)(2-(1-(cyclopropylmethyl)-6-(1,1,1-trifluoro-2-hydroxypropan-2-yl)-1H-indol-2-yl)-3-methylpyrazolo[1,5-a]pyridin-6-yl)methanone] | 11 nM
Cc1c(-c2cc3ccc(C(C)(C)O)nc3n2CC2CC2)nn2cc(C(=O)N3CC4CCC3[C@@H]4N)ccc12 (stereo partly drawn) [Example 102, ((7R)-7-Amino-2-azabicyclo[2.2.1]heptan-2-yl)(2-(1-(cyclopropylmethyl)-6-(2-hydroxypropan-2-yl)-1H-pyrrolo[2,3-b]pyridin-2-yl)-3-methylpyrazolo[1,5-a]pyridin-6-yl)methanone] | 12 nM
Cc1c(-c2cc3ccc(C(C)(O)C(F)(F)F)nc3n2CC2CC2)nn2cc(C(=O)N3CC4CCC3[C@@H]4N)ccc12 (stereo partly drawn) [Example 103, ((7R)-7-Amino-2-azabicyclo[2.2.1]heptan-2-yl)(2-(1-(cyclopropylmethyl)-6-(1,1,1-trifluoro-2-hydroxypropan-2-yl)-1H-pyrrolo[2,3-b]pyridin-2-yl)-3-methylpyrazolo[1,5-a]pyridin-6-yl)methanone] | 34 nM
Cc1c(-c2cc3ccc(C(C)O)nc3n2CC2CC2)nn2cc(C(=O)N3CC4CCC3[C@@H]4N)ccc12 (stereo partly drawn) [Example 104, ((7R)-7-Amino-2-azabicyclo[2.2.1]heptan-2-yl)(2-(1-(cyclopropylmethyl)-6-(1-hydroxyethyl)-1H-pyrrolo[2,3-b]pyridin-2-yl)-3-methylpyrazolo[1,5-a]pyridin-6-yl)methanone] | 25 nM
Cc1c(-c2cc3ccc(C(C)(C)O)nc3n2CC2CC2)nn2cc(C(=O)N3C[C@H](N)C[C@@H](F)C3)ccc12 [Example 105, ((3R,5R)-3-Amino-5-fluoropiperidin-1-yl)(2-(1-(cyclopropylmethyl)-6-(2-hydroxypropan-2-yl)-1H-pyrrolo[2,3-b]pyridin-2-yl)-3-methylpyrazolo[1,5-a]pyridin-6-yl)methanone] | 107 nM
Cc1c(-c2cc3ccc(Cl)nc3n2CC2CC2)nn2cc(C(=O)N3CC4CCC3[C@@H]4N)cnc12 (stereo partly drawn) [Example 108, ((7R)-7-Amino-2-azabicyclo[2.2.1]heptan-2-yl)(2-(6-chloro-1-(cyclopropylmethyl)-1H-pyrrolo[2,3-b]pyridin-2-yl)-3-methylpyrazolo[1,5-a]pyrimidin-6-yl)methanone] | 907 nM
Cc1c(-c2cc3ccc(-c4cccc(O)c4F)nc3n2CC2CC2)nn2cc(C(=O)N3CC4CCC3[C@@H]4N)cnc12 (stereo partly drawn) [Example 109, ((7R)-7-Amino-2-azabicyclo[2.2.1]heptan-2-yl)(2-(1-(cyclopropylmethyl)-6-(2-fluoro-3-hydroxyphenyl)-1H-pyrrolo[2,3-b]pyridin-2-yl)-3-methylpyrazolo[1,5-a]pyrimidin-6-yl)methanone] | 292 nM
Cc1c(-c2cc3ccc(-c4ccc5c(c4)C(=O)NC5)nc3n2CC2CC2)nn2cc(C(=O)N3CC4CCC3[C@@H]4N)cnc12 (stereo partly drawn) [Example 110, 6-(2-(6-((7R)-7-Amino-2-azabicyclo[2.2.1]heptane-2-carbonyl)-3-methylpyrazolo[1,5-a]pyrimidin-2-yl)-1-(cyclopropylmethyl)-1H-pyrrolo[2,3-b]pyridin-6-yl)isoindolin-1-one] | 1040 nM
Cc1c(-c2cc3ccc(-c4ccc(O)c(F)c4)nc3n2CC2CC2)nn2cc(C(=O)N3CC4CCC3[C@@H]4N)cnc12 (stereo partly drawn) [Example 111, ((7R)-7-Amino-2-azabicyclo[2.2.1]heptan-2-yl)(2-(1-(cyclopropylmethyl)-6-(3-fluoro-4-hydroxyphenyl)-1H-pyrrolo[2,3-b]pyridin-2-yl)-3-methylpyrazolo[1,5-a]pyrimidin-6-yl)methanone] | 15000 nM
Cc1c(-c2cc3ccc(-c4ccc(C(N)=O)c(F)c4)nc3n2CC2CC2)nn2cc(C(=O)N3CC4CCC3[C@@H]4N)cnc12 (stereo partly drawn) [Example 112, 4-(2-(6-((7R)-7-Amino-2-azabicyclo[2.2.1]heptane-2-carbonyl)-3-methylpyrazolo[1,5-a]pyrimidin-2-yl)-1-(cyclopropylmethyl)-1H-pyrrolo[2,3-b]pyridin-6-yl)-2-fluorobenzamide] | 572 nM
COc1nc(C(=O)N2CC3CCC2[C@@H]3N)cn2nc(-c3cc4ccccc4n3CC3CC3)c(C)c12 (stereo partly drawn) [Example 113, ((7R)-7-Amino-2-azabicyclo[2.2.1]heptan-2-yl)(2-(1-(cyclopropylmethyl)-1H-indol-2-yl)-4-methoxy-3-methylpyrazolo[1,5-a]pyrazin-6-yl)methanone] | 283 nM
COc1nc(C(=O)N2C[C@H](N)C[C@@H](F)C2)cn2nc(-c3cc4ccccc4n3CC3CC3)c(C)c12 [Example 114, ((3R,5R)-3-Amino-5-fluoropiperidin-1-yl)(2-(1-(cyclopropylmethyl)-1H-indol-2-yl)-4-methoxy-3-methylpyrazolo[1,5-a]pyrazin-6-yl)methanone] | 3980 nM
COc1nc(C(=O)N2CC3CCC2[C@@H]3N)cn2nc(-c3cc4cccnc4n3CC3CC3)c(C)c12 (stereo partly drawn) [Example 115, ((7R)-7-Amino-2-azabicyclo[2.2.1]heptan-2-yl)(2-(1-(cyclopropylmethyl)-1H-pyrrolo[2,3-b]pyridin-2-yl)-4-methoxy-3-methylpyrazolo[1,5-a]pyrazin-6-yl)methanone] | 3370 nM
COc1nc(C(=O)N2CC3(CNC3)C2)cn2nc(-c3cc4cccnc4n3CC3CC3)c(C)c12 [Example 116, (2-(1-(Cyclopropylmethyl)-1H-pyrrolo[2,3-b]pyridin-2-yl)-4-methoxy-3-methylpyrazolo[1,5-a]pyrazin-6-yl)(2,6-diazaspiro[3.3]heptan-2-yl)methanone] | 22800 nM
COc1nc(C(=O)NC[C@H](F)CN)cn2nc(-c3cc4cccnc4n3CC3CC3)c(C)c12 [Example 117, (R)-N-(3-Amino-2-fluoropropyl)-2-(1-(cyclopropylmethyl)-1H-pyrrolo[2,3-b]pyridin-2-yl)-4-methoxy-3-methylpyrazolo[1,5-a]pyrazine-6-carboxamide] | 15000 nM
COc1cc(C(=O)N2CC3CCC2[C@@H]3N)cc2sc(-c3cc4ccccc4n3CC3CC3)c(C)c12 (stereo partly drawn) [Example 118, ((7R)-7-Amino-2-azabicyclo[2.2.1]heptan-2-yl)(2-(1-(cyclopropylmethyl)-1H-indol-2-yl)-4-methoxy-3-methylbenzo[b]thiophen-6-yl)methanone] | 157 nM
COc1cc(C(=O)N2CC3CCC2[C@@H]3N)cc2sc(-c3cc4cccnc4n3CC3CC3)c(C)c12 (stereo partly drawn) [Example 119, ((7R)-7-Amino-2-azabicyclo[2.2.1]heptan-2-yl)(2-(1-(cyclopropylmethyl)-1H-pyrrolo[2,3-b]pyridin-2-yl)-4-methoxy-3-methylbenzo[b]thiophen-6-yl)methanone] | 84 nM
COc1cc(C(=O)N2CC3CCC2[C@@H]3N)cc2sc(-c3cc4ccc(-c5ccc6c(c5)C(=O)NC6)cc4n3CC3CC3)c(C)c12 (stereo partly drawn) [Example 120, 6-(2-(6-((7R)-7-Amino-2-azabicyclo[2.2.1]heptane-2-carbonyl)-4-methoxy-3-methylbenzo[b]thiophen-2-yl)-1-(cyclopropylmethyl)-1H-indol-6-yl)isoindolin-1-one] | 250 nM
COc1cc(C(=O)N2CC3CCC2[C@@H]3N)cc2sc(-c3cc4ccc(-c5cccc(O)c5F)cc4n3CC3CC3)c(C)c12 (stereo partly drawn) [Example 121, ((7R)-7-Amino-2-azabicyclo[2.2.1]heptan-2-yl)(2-(1-(cyclopropylmethyl)-6-(2-fluoro-3-hydroxyphenyl)-1H-indol-2-yl)-4-methoxy-3-methylbenzo[b]thiophen-6-yl)methanone] | 1500 nM

Source: patent US12473304B2, “Heterocyclic PAD4 inhibitors” (BRISTOL-MYERS SQUIBB COMPANY, priority 2020, dated 2025)
